Reference: PubChem BioAssay AID1963967 (Molecular Pharmacology Branch, DTP, NCI, 2024)
Where “and” joins values, the source holds several entries; their conditions need not be identical. Equal values may be shown once.

Tested on: 855422-203-R-J1-PDC spheroids with HUVEC/MSC, viability
Assay: Anticancer human tumor 855422-203-R-J1-PDC patient-derived bladder carcinoma cell line growth inhibition [PI3K]
Conditions: for viability, T/C: stronger effect = lower value; active = viability on the fitted dose curve at most 10% of control; inactive = the rest
Method in brief: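 Tumor cells were combined with HUVEC and MSCs into spheroids, then dosed with PI3K-inhibitor combinations over half-log ranges capped near clinical Cmax or 10 microM.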

[1] = curve of first compound, second compound 0.0316 µM
[2] = curve of first compound, second compound 0.1 µM
[3] = curve of first compound, second compound 0.316 µM
[4] = curve of first compound, second compound 1 µM
[5] = curve of first compound, second compound 3.16 µM
[6] = curve of first compound, second compound 10 µM
[7] = second compound 0.0316 µM, first compound 0.0316 µM
[8] = second compound 0.0316 µM, first compound 0.1 µM
[9] = second compound 0.0316 µM, first compound 0.316 µM
[10] = second compound 0.0316 µM, first compound 1 µM
[11] = second compound 0.0316 µM, first compound 3.16 µM
[12] = second compound 0.0316 µM, first compound 10 µM
[13] = second compound 0.1 µM, first compound 0.0316 µM
[14] = second compound 0.1 µM, first compound 0.1 µM
[15] = second compound 0.1 µM, first compound 0.316 µM
[16] = second compound 0.1 µM, first compound 1 µM
[17] = second compound 0.1 µM, first compound 3.16 µM
[18] = second compound 0.1 µM, first compound 10 µM
[19] = second compound 0.316 µM, first compound 0.0316 µM
[20] = second compound 0.316 µM, first compound 0.1 µM
[21] = second compound 0.316 µM, first compound 0.316 µM
[22] = second compound 0.316 µM, first compound 1 µM
[23] = second compound 0.316 µM, first compound 3.16 µM
[24] = second compound 0.316 µM, first compound 10 µM
[25] = second compound 1 µM, first compound 0.0316 µM
[26] = second compound 1 µM, first compound 0.1 µM
[27] = second compound 1 µM, first compound 0.316 µM
[28] = second compound 1 µM, first compound 1 µM
[29] = second compound 1 µM, first compound 3.16 µM
[30] = second compound 1 µM, first compound 10 µM
[31] = second compound 3.16 µM, first compound 0.0316 µM
[32] = second compound 3.16 µM, first compound 0.1 µM
[33] = second compound 3.16 µM, first compound 0.316 µM
[34] = second compound 3.16 µM, first compound 1 µM
[35] = second compound 3.16 µM, first compound 3.16 µM
[36] = second compound 3.16 µM, first compound 10 µM
[37] = second compound 10 µM, first compound 0.0316 µM
[38] = second compound 10 µM, first compound 0.1 µM
[39] = second compound 10 µM, first compound 0.316 µM
[40] = second compound 10 µM, first compound 1 µM
[41] = second compound 10 µM, first compound 3.16 µM
[42] = second compound 10 µM, first compound 10 µM
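Also: agents incubated with spheroids for one week before read-out.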
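For viability, T/C in this document: 100% = DMSO vehicle-treated control wells.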

C#Cc1c(F)ccc2cc(O)cc(-c3ncc4c(N5CC6CCC(C5)N6)nc(OCC56CCCN5CC(F)C6)nc4c3F)c12 (configuration not stated) + CC(Nc1ncnc2nc[nH]c12)c1cc2cccc(Cl)c2c(=O)n1-c1ccccc1
> 10 µM: IC50 [1] | IC50 [2] | IC50 [3] | IC50 [4] | IC50 [5] | IC50 [6]
inactive: viability, T/C [7] 105% | viability, T/C [8] 101% | viability, T/C [9] 116% | viability, T/C [10] 98.3% | viability, T/C [11] 112% | viability, T/C [12] 119% | viability, T/C [13] 107% | viability, T/C [14] 102% | viability, T/C [15] 107% | viability, T/C [16] 101% | viability, T/C [17] 110% | viability, T/C [18] 112% | viability, T/C [19] 98.1% | viability, T/C [20] 108% | viability, T/C [21] 96.6% | viability, T/C [22] 102% | viability, T/C [23] 106% | viability, T/C [24] 121% | viability, T/C [25] 102% | viability, T/C [26] 102% | viability, T/C [27] 103% | viability, T/C [28] 109% | viability, T/C [29] 104% | viability, T/C [30] 115% | viability, T/C [31] 107% | viability, T/C [32] 99.1% | viability, T/C [33] 112% | viability, T/C [34] 93.7% | viability, T/C [35] 98.1% | viability, T/C [36] 126% | viability, T/C [37] 87.2% | viability, T/C [38] 82.8% | viability, T/C [39] 80% | viability, T/C [40] 88.5% | viability, T/C [41] 94% | viability, T/C [42] 88.9%

CC1(C)CCC(CN2CCN(c3ccc(C(=O)NS(=O)(=O)c4ccc(NCC5CCOCC5)c([N+](=O)[O-])c4)c(Oc4cnc5[nH]ccc5c4)c3)CC2)=C(c2ccc(Cl)cc2)C1 + Cc1nc(NC(=O)N2CCCC2C(N)=O)sc1-c1ccnc(C(C)(C)C(F)(F)F)c1
5.26 µM: IC50 [3]
active: viability, T/C [12] 1.55% | viability, T/C [18] 1.52% | viability, T/C [24] 1.39% | viability, T/C [30] 0.91% | viability, T/C [36] 0.59%
4.58 µM: IC50 [4]
4.94 µM: IC50 [2]
inactive: viability, T/C [7] 105% | viability, T/C [8] 89.9% | viability, T/C [9] 112% | viability, T/C [10] 100% | viability, T/C [11] 72.8% | viability, T/C [13] 99.8% | viability, T/C [14] 87.4% | viability, T/C [15] 101% | viability, T/C [16] 102% | viability, T/C [17] 80.6% | viability, T/C [19] 89.8% | viability, T/C [20] 91.8% | viability, T/C [21] 95.3% | viability, T/C [22] 92.1% | viability, T/C [23] 88.6% | viability, T/C [25] 76.8% | viability, T/C [26] 77% | viability, T/C [27] 69.5% | viability, T/C [28] 81% | viability, T/C [29] 73.3% | viability, T/C [31] 47.7% | viability, T/C [32] 45.5% | viability, T/C [33] 42.7% | viability, T/C [34] 49% | viability, T/C [35] 47% | viability, T/C [37] 25.8% | viability, T/C [38] 23.5% | viability, T/C [39] 25.7% | viability, T/C [40] 29.4% | viability, T/C [41] 24.7% | viability, T/C [42] 0.6%
< 0.0316 µM: IC50 [5] | IC50 [6]
4.57 µM: IC50 [1]

CCCS(=O)(=O)Nc1ccc(F)c(C(=O)c2c[nH]c3ncc(-c4ccc(Cl)cc4)cc23)c1F
active: viability, T/C (compound 10 µM) 0.53% [middle of 4 runs]
4.16 µM [middle of 4 runs]: IC50 (curve of compound)
inactive: viability, T/C (compound 0.1 µM) 96.7% [middle of 4 runs] | viability, T/C (compound 0.316 µM) 108% (2×) and 99.2% and 92.2% | viability, T/C (compound 1 µM) 87.6% [middle of 4 runs] | viability, T/C (compound 3.16 µM) 65.7% [middle of 4 runs]

C#Cc1c(F)ccc2cc(O)cc(-c3ncc4c(N5CC6CCC(C5)N6)nc(OCC56CCCN5CC(F)C6)nc4c3F)c12 (configuration not stated)
inactive: viability, T/C (compound 0.0316 µM) 110% [middle of 4 runs] | viability, T/C (compound 0.1 µM) 101% (2×) and 94.4% and 83.5% | viability, T/C (compound 0.316 µM) 109% [middle of 4 runs] | viability, T/C (compound 1 µM) 103% [middle of 4 runs] | viability, T/C (compound 3.16 µM) 109% [middle of 4 runs] | viability, T/C (compound 10 µM) 114% (2×) and 107% and 112%
> 10 µM: IC50 (curve of compound)

Cn1cnc2c(F)c(Nc3ccc(Br)cc3Cl)c(C(=O)NOCCO)cc21 + CC(Nc1ccc2c(c1)OCCn1cc(N3C(=O)OCC3C(F)F)nc1-2)C(N)=O
active: viability, T/C (second compound 0.316 µM, first compound 3 µM) 9.16% | viability, T/C (second compound 1 µM, first compound 3 µM) 4.67%
1.87 µM: IC50 [1]
inactive: viability, T/C (second compound 0.00316 µM, first compound 0.00949 µM) 91.7% | viability, T/C (second compound 0.00316 µM, first compound 0.03 µM) 83.8% | viability, T/C (second compound 0.00316 µM, first compound 0.0949 µM) 104% | viability, T/C (second compound 0.00316 µM, first compound 0.3 µM) 83.2% | viability, T/C (second compound 0.00316 µM, first compound 0.949 µM) 82.5% | viability, T/C (second compound 0.00316 µM, first compound 3 µM) 39.8% | viability, T/C (second compound 0.01 µM, first compound 0.00949 µM) 95.9% | viability, T/C (second compound 0.01 µM, first compound 0.03 µM) 89.1% | viability, T/C (second compound 0.01 µM, first compound 0.0949 µM) 97.7% | viability, T/C (second compound 0.01 µM, first compound 0.3 µM) 81.4% | viability, T/C (second compound 0.01 µM, first compound 0.949 µM) 80.9% | viability, T/C (second compound 0.01 µM, first compound 3 µM) 37.9% | viability, T/C (second compound 0.0316 µM, first compound 0.00949 µM) 81% | viability, T/C (second compound 0.0316 µM, first compound 0.03 µM) 83.4% | viability, T/C (second compound 0.0316 µM, first compound 0.0949 µM) 91.5% | viability, T/C (second compound 0.0316 µM, first compound 0.3 µM) 92.3% | viability, T/C (second compound 0.0316 µM, first compound 0.949 µM) 75% | viability, T/C (second compound 0.0316 µM, first compound 3 µM) 32.6% | viability, T/C (second compound 0.1 µM, first compound 0.00949 µM) 64.9% | viability, T/C (second compound 0.1 µM, first compound 0.03 µM) 67.1% | viability, T/C (second compound 0.1 µM, first compound 0.0949 µM) 67.3% | viability, T/C (second compound 0.1 µM, first compound 0.3 µM) 71.3% | viability, T/C (second compound 0.1 µM, first compound 0.949 µM) 46% | viability, T/C (second compound 0.1 µM, first compound 3 µM) 22.2% | viability, T/C (second compound 0.316 µM, first compound 0.00949 µM) 47.6% | viability, T/C (second compound 0.316 µM, first compound 0.03 µM) 45.7% | viability, T/C (second compound 0.316 µM, first compound 0.0949 µM) 47.3% | viability, T/C (second compound 0.316 µM, first compound 0.3 µM) 38.3% | viability, T/C (second compound 0.316 µM, first compound 0.949 µM) 28.6% | viability, T/C (second compound 1 µM, first compound 0.00949 µM) 30.4% | viability, T/C (second compound 1 µM, first compound 0.03 µM) 28.1% | viability, T/C (second compound 1 µM, first compound 0.0949 µM) 25.3% | viability, T/C (second compound 1 µM, first compound 0.3 µM) 21.3% | viability, T/C (second compound 1 µM, first compound 0.949 µM) 16.1%
2.28 µM: IC50 (curve of first compound, second compound 0.00316 µM)
< 0.00949 µM: IC50 [3] | IC50 [4]
2.15 µM: IC50 (curve of first compound, second compound 0.01 µM)
0.769 µM: IC50 [2]

CC1(C)CCC(CN2CCN(c3ccc(C(=O)NS(=O)(=O)c4ccc(NCC5CCOCC5)c([N+](=O)[O-])c4)c(Oc4cnc5[nH]ccc5c4)c3)CC2)=C(c2ccc(Cl)cc2)C1
inactive: viability, T/C (compound 0.0316 µM) 107% [middle of 4 runs] | viability, T/C (compound 0.1 µM) 92.7% [middle of 4 runs] | viability, T/C (compound 0.316 µM) 118% [middle of 4 runs] | viability, T/C (compound 1 µM) 102% and 95.7% and 103% (2×)
active: viability, T/C (compound 10 µM) 2.29% [middle of 4 runs]
4.81 µM [middle of 4 runs]: IC50 (curve of compound)

C=CC(=O)N1CCN(c2nc(=O)n(-c3c(C)ccnc3C(C)C)c3nc(-c4c(O)cccc4F)c(F)cc23)C(C)C1 (configuration not stated)
> 10 µM: IC50 (curve of compound)
inactive: viability, T/C (compound 0.0316 µM) 109% [middle of 4 runs] | viability, T/C (compound 0.1 µM) 95.2% [middle of 4 runs] | viability, T/C (compound 0.316 µM) 117% [middle of 4 runs] | viability, T/C (compound 1 µM) 108% [middle of 4 runs] | viability, T/C (compound 3.16 µM) 122% [middle of 4 runs] | viability, T/C (compound 10 µM) 121% [middle of 4 runs]
